Laboratory results taken from patent US4988735A, “Ethylene diamine active cardiovascular therapy” (Simes, priority 1987, dated 1991).
Where two headings read alike, the source gives them in different places.

Experiments:
[1] = tested on: systemic hemodynamics; assay: Effects on systemic hemodynamics in dogs anaesthetized with pentobarbital (i.v. bolus); format: in vivo, dog; conditions: for Heart rate: average ± SD, basal: Compound II 167±15, Compound A 178±11; for Heart index: basal: Compound II 1.547±0.147, Compound A 1.820±0.311; for Total peripheral resistances: basal: Compound II 78.497±8.587 (** p<0.01), Compound A 63.985±5.037; for Arterial pressure, minimum: basal: Compound II 101±5 (** p<0.01), Compound A 97±11; for Arterial pressure, medium: basal: Compound II 117±7 (** p<0.01), Compound A 112±12; for Maximum ejection rate: basal: Compound II 126.79±14.41 (* p<0.05), Compound A 138.59±21.74; for Arterial pressure, maximum: basal: Compound II 149±11 (* p<0.05), Compound A 143±14
Description: (§1) Catheters for detection of arterial pressure and flow electromagnetic transducers for measuring heart flow (heart index) and coronary flow were inserted in dogs anaesthetized with pentobarbital. The resistances were calculated from the pressure/flow ratio.

[2] = tested on: vascular smooth muscle; conditions: according to data in European Patent No. 41,757; cited from earlier work
[3] = tested on: arteriosclerotic plaques in aorta; assay: Prevention of the formation of arteriosclerotic plaques in rabbits on hypercholesterolemic diet; format: in vivo, rabbit
Description: Rabbits HY/CR were feeded with iperchloesterolemic diet (2% (cholesterol) for 60 days at the end of which, by planimetry after colouring aorta with Sindon Black, the extent of arteriosclerotic plaques was evaluated. […]

[4] = tested on: serotonin-induced spasm of rabbit aorta; assay: Antagonism towards vascular spasms induced by serotonin, aorta strips; format: cell-based; conditions: Oryctolagus cuniculus, Krebs solution 37 °C, fiduciary limits 0.05-0.56
Description: (§2) (a) Antagonism towards vascular spasms induced by serotonin. Vascular strips of mesenteric artery and rabbit aorta were put into baths for isolated organ containing Krebs solutions at 37° C. and aerated with a mixture of oxygen and carbon dioxide 95:5.
(§3) The addition of serotonin to the bath causes a spasm which is detected by a strength transducer.
(§4) The antagonistic activity of compound II, evaluated as inhibiting concentration (IC50), gave the following results: […]

[5] = tested on: coronary hemodynamics; assay: Effects on coronary hemodynamics in dogs anaesthetized with pentobarbital (i.v. bolus); format: in vivo, dog
Description: as §1

[6] = tested on: serotonin-induced spasm of mesenteric artery; assay: Antagonism towards vascular spasms induced by serotonin, mesenteric artery strips; format: cell-based; conditions: Krebs solution 37 °C, fiduciary limits 0.15-0.31
Description: as §2, §3, §4

[7] = tested on: smooth muscle cells isolated from rat aorta; assay: Inhibition of arterial smooth muscle cell proliferation; format: cell-based
Description: A culture of smooth muscle cells was isolated by rat aorta incubated in the presence of the tested Compounds II, A, B, C and D for 24, 48 and 72 hours in a minimal essential medium added with bovine fetal serum: at the above intervals the number of cells in the culture was counted by a hemocytometer and compared with the number of cells in a control culture.

[8] = tested on: serotonin-enhanced aggregation of dog blood platelets; assay: Enhancement in aggregation induced by serotonin, dog blood platelets; format: cell-based; conditions: Canis lupus familiaris, Platelet, dihydrochloride, read-out: Threshold Inhibiting Concentration (TlC)
Description: (b) Enhancement in aggregation induced by serotonin.
The addition of 5HT to dog blood platelets causes the aggregation of non-aggregating concentrations of adenosine diphosphate, collagen and adrenaline.
The effects of compound II (dihydrochloride) expressed as single concentration, were evaluated by pre-incubating the blood platelets with different concentrations of the product and expressed as Threshold Inhibiting Concentration (TlC): […]

[9] = tested on: serotonin-induced shape change of rat blood platelets; assay: Change of the shape of blood platelets induced by serotonin; format: cell-based; conditions: Platelet, pre-treated, dihydrochloride
Description: (c) Change of the shape of blood platelets induced by serotonin. The addition of serontonin to rat blood platelets causes a change in the shape which is measured by an aggregometer as maximum decrease in light transmission.
Compund II (dihydrochloride) was tested by pre-treating the blood platelets with different concentrations of product and the activity was expressed as 50% inhibiting concentration (IC50).

[10] = tested on: serotonin; assay: Specific antagonism of serotonin effects on blood platelets and vessels (general statement)
Excerpt: Evaluation of specific antagonistic activity to serotonin (5TH) effects

## COc1cc(CN(C)CCN(C)CCC(c2ccccc2)c2ccccc2)cc(OC)c1OC [Compound A, N,N'-dimethyl-N-(3,4,5-trimethoxybenyl)-N'-(3,3-diphenyl-propyl)-ethylenediamine, reference compound]
[1]; dog, 1 mg/kg (four times higher dose)
  Hemodynamic effects compared with Compound II (in words): Comparable effects to compound II
[1]; dog, Compound A at 1 mg/kg
  Cardiac output (in words): decrease in cardiac output
[1]; dog, i.v. bolus 0.25 mg/kg
  Effects on peripheral vascular resistances and on arterial pressure (in words): borderline effects
  Heart rate: 147±8 beats/min
  Heart index: 1.615±0.237 l/min/m^2
  Total peripheral resistances: 45.023±2.849 mmHg/l/min.
  Arterial pressure, minimum: 50±3 mmHg
  Arterial pressure, medium: 71±8 mmHg
  Maximum ejection rate: 135.58±17.55 ml/sec/m^2
  Arterial pressure, maximum: 98 mmHg
[1]; dog, i.v. bolus 0.25 mg/kg, Compound A, basal 10.09±1.29 (* p<0.05)
  Systolic index: 11.11±1.49 ml/beatsm^2
[2]
  Anti-spasmodic activity (in words): most active compound

## COc1cc(CN(C)CCN(C)CCC(c2ccc(F)cc2)c2ccc(F)cc2)cc(OC)c1OC [Compound II, N,N'-dimethyl-N-(3,4,5-trimethoxybenzyl)-N'-[3,3-di-(4-fluorophenyl)-propyl]-ethylenediamine]
[3]; rabbit, 1 mg/kg s.c. twice a day, 60 days
  Reduction of the area of plaques in aorta: 40%
[3]; rabbit, 3 mg/kg s.c. twice a day, 60 days
  Reduction of the formation / area of plaques in aorta: 60%
[3]; rabbits on hypercholesterolemic diet
  Prevention of the formation of arteriosclerotic plaques (in words): able to prevent the formation of arteriosclerotic plaques
[4]
  IC50: 0.16 µM
[5]; anesthetized dogs
  Coronary vascular resistances (in words): decrease in systemic and coronary vascular resistances
[5]; dog, coronary hemodynamics, i.v. bolus 0.25 mg/kg, basal 103±6
  Arterial pressure, minimum: 87±3 mmHg
[5]; dog, coronary hemodynamics, i.v. bolus 0.25 mg/kg, basal 116±4
  Arterial pressure, medium: 102±5 mmHg
[5]; dog, coronary hemodynamics, i.v. bolus 0.25 mg/kg, basal 140±14
  Heart rate: 143±15 beats/min
[5]; dog, coronary hemodynamics, i.v. bolus 0.25 mg/kg, basal 145±3
  Arterial pressure, maximum: 142±5 mmHg
[5]; dog, i.v. bolus 0.25 mg/kg, basal 2.887±0.381, * p<0.05
  Average coronary resistances: 1.301±0.141 mmHg/ml/min
[5]; dog, i.v. bolus 0.25 mg/kg, basal 41.3±3.7, * p<0.05
  Left circumflex coronary artery flow: 101.6 ± 10.8 mL/min
[1]; anesthetized dogs
  Cardiac output (in words): increase in cardiac output
  Heart rate (in words): without a contemporaneous increase in heart rate
  Systemic vascular resistances (in words): decrease in systemic and coronary vascular resistances
[1]; dog, i.v. bolus 0.25 mg/kg, Compound II, basal 9.51±1.24 (* p<0.05)
  Systolic index: 13.39±1.00 ml/beats/m^2
[1]; dog, i.v. bolus 0.25 mg/kg
  Heart rate: 156±12 beats/min
  Heart index: 2.088±0.240 l/min/m^2
  Total peripheral resistances: 44.366±4.200 mmHg/l/min.
  Arterial pressure, minimum: 72±2 mmHg
  Arterial pressure, medium: 89±3 mmHg
  Maximum ejection rate: 174.77±10.27 ml/sec/m^2
  Arterial pressure, maximum: 130±6 mmHg
[6]
  IC50: 0.22 µM
[7]
  Arterial smooth muscle cell proliferation (in words): inhibit arterial smooth muscle cell proliferation
[7]; 5 μM, 24, 48 and 72 hours
  Inhibition of cell proliferation (in words): inhibited meaningfully cell proliferation
[7]; rat aorta smooth muscle cells, 24, 48 and 72 hours (time of the IC50 not stated)
  IC50: 10 µM
[8]; adenosine diphosphate + serotonin
  minimal effective concentration: 37 ± 20 µM
[8]; adrenaline + serotonin
  minimal effective concentration: 11 ± 5.4 µM
[8]; collagen + serotonin
  minimal effective concentration: 5.6 ± 4 µM
[9]
  IC50: 8.35 ± 1.35 µM
[10]
  Antagonism of serotonin effects on blood platelets and vessels (in words): able to antagonize, in a specific way, the effect of serotonin on blood platelets as well as on vessels
